Three sequences from patent US20040147006A1, “Peptides that bind to DNA and inhibit DNA replication, and methods of use” (priority 2001, published 2004) can be followed below.

“Also recorded” adds a separate entry of the source. Like-named read-outs stand apart in the source and are kept apart here.

Assay [1] deals with T1, T-ag oligomerization on 64-bp oligonucleotide containing the SV40 core origin (Simian virus 40, UniProt P03070).
T1 construct: made in house
It is filed as biochemical. As to conditions: T-ag 6 pmol; for Effect on T-ag oligomerization, mutant set (FIG. 11 Panel B): 64-bp SV40 core origin, peptide concentration not given; for Effect on T-ag oligomerization (hexamer and double hexamer formation): peptide final concentration 1 mM (20 nmoles). Here is the method:
(§1) Electrophoretic mobility shift assays (EMSA). Double stranded oligonucleotides, ^32P labeled at 5′ termini, were prepared using standard procedures (Sambrook, J., et al., 1989, Cold Spring Harbor Laboratory, Cold Spring Harbor, N.Y.; Sreekumar, K. A., et al., 2000, p. 49-67; In, L. Raptis (ed.), Methods in Molecular Biology; SV40 Protocols; Humana Press; Totowa, N.J.). EMSA rections were conducted using conditions for SV40 in vitro replication (Wobbe, C. R., et al., 1985, Proc. Natl. Acad. Sci. USA 82:5710-571 4). The reactions (20 μl) contained 7 mM MgCl2, 0.5 mM DTT, 4 mM AMP-PNP, 40 mM creatine phosphate (pH 7.6), 0.48 μg of creatine phosphate kinase, 5 μg of bovine serum albumin, 0.8 μg of Hae III-digested pBR322 ([…]; used as a nonspecific competitor), about 25 fmol of double stranded oligonucleotide, T-ag and the indicated amounts of peptide. After a 20-min incubation at 37° C., glutaraldehyde (0.1 % final concentration) was added and the reaction products were further incubated for 5 min. The reactions were stopped by the addition of 5 μl of 6× loading dye II (15% Ficoll, 0.25% bromophenol blue, and 0.25% xylene cyanol; Sambrook, J., et al., 1989, Cold Spring Harbor Laboratory, Cold Spring Harbor, N.Y.) to the reaction mixtures. Samples containing T-ag were applied to 3.5 to 12% gradient polyacrylamide gels and electrophoresed in 0.5% Tris-borate-EDTA (TBE) pH 8.4 for about 1.5 h (10 watts).

In assay [2] the test system is 64 bp SV40 core origin (SEQ ID NO: 24). The assay is described as follows: Peptide band shift (EMSA without T-ag), core origin. As to conditions: for Peptide/DNA complex formation in peptide band shift: SV40 core origin, 13-mer set at 1 mM final concentration (20 nmoles); for DNA binding seen in EMSA without cross-linking: absence of cross-linking with glutaraldehyde. It is filed as binding. On the procedure:
as §1
[…] Moreover, the samples were loaded on 8% polyacryamide gels and electrophoresed in 0.5% TBE pH 8.4 for about 3h (about 200 volts). The gels were dried on Whatman 3 MM paper, subjected to autoradiography and quantitated using a Molecular Dynamics PhosphorImager (Sunnyvale, Calif.).

In a further assay the target is T2, T-ag helicase ATPase (Simian virus 40, UniProt P03070).
T2 construct: made in house
T2 sequence (P03070 whole entry): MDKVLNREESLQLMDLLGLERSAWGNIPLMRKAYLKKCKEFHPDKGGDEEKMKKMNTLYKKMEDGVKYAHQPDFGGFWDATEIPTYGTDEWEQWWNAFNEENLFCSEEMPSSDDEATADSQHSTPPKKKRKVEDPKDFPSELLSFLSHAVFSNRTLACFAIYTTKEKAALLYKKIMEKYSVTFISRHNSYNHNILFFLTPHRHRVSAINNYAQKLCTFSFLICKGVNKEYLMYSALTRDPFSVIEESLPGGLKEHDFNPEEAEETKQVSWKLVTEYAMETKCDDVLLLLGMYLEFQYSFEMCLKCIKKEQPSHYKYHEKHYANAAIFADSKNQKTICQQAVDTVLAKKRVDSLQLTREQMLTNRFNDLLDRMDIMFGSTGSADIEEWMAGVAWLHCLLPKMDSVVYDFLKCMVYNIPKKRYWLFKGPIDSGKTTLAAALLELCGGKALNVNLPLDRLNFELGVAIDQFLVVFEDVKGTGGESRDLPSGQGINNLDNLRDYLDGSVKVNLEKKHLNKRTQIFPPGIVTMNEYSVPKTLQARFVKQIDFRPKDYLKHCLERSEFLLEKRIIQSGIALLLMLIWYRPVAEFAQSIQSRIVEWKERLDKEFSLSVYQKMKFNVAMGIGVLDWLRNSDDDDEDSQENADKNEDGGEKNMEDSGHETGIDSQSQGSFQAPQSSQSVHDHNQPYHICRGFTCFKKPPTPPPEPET
The format is biochemical, SV40. Conditions: duplicate lanes, FIG. 13. On the procedure:
A method for measuring ATP hydrolysis involves incubating T-ag with a ^32P-labeled ATP, cross-linking with gluteraldehyde, removing unincorporated nucleotides by passing the reaction products over a Bio-Spin P-30 column, drying the eluate in a Speedvac, resuspending the samples in formic acid, and performing thin layer chromatography on PEI (polyethyleneimine) plates. Using autoradiography, the amount of ATP, ADP and AMP associated with T-ag was determined.

Assay [3] has as its system 64 bp enhancer control (SEQ ID NO: 29). The assay is described as follows: Peptide band shift (EMSA without T-ag), control oligonucleotide. As to conditions: 64 bp enhancer control oligonucleotide. It is filed as binding. On the procedure:
as §1
Peptide based band shift reactions were identical to those described above except that T-ag was omitted from the reactions and the final glutaraldehyde concentration was reduced to 0.05 %. Moreover, the samples were loaded on 8% polyacryamide gels and electrophoresed in 0.5% TBE pH 8.4 for about 3h (about 200 volts). The gels were dried on Whatman 3 MM paper, subjected to autoradiography and quantitated using a Molecular Dynamics PhosphorImager (Sunnyvale, Calif.).
A general note: In EMSA bound probe runs differently from free probe, usually more slowly.

For assay [4], the system named is double stranded oligonucleotide containing the SV40 core origin (SEQ ID NO: 24). Briefly: Nitrocellulose filter binding of peptide to DNA. Here is the method:
Nitrocellulose filter binding reactions. Assay for the ability of NLS based peptides to bind to DNA were performed using published methods (Sreekumar, K. A., et al., 2000, In, L. Raptis (ed.), Methods in Molecular Biology: SV40 Protocols; Humana Press, Totowa, N.J. p. 49-67). Reactions (20 μl) contained 7 mM MgCl2, 0.5 mM DTT, 4 mM AMP-PNP, 40 mM creatine phosphate (di-Tris salt pH7.7), 0.48 μg of creatine phosphokinase, 0.2 mg of bovine serum albumin per ml, 0.8 μg of Hae III-digested pBR322 DNA, about 25 fmol of a given oligonucleotide (about 10^6 cpm/pmol) and the indicated peptide. After incubation for 20 min at 37° C., the mixtures were filtered under suction through alkali-treated nitrocellulose filters (Millipore type HAWP; pore size, 0.4 μm; stored in 100 mM Tris-HCl, pH7.5). The filters were then washed with 5 ml of 100 mM Tris-HCl, pH 7.5, and were dried and counted in a Beckman LS 3801 scintillation counter.

Assay [5] concerns SV40 DNA replication in HeLa human cell crude extracts. The assay is described as follows: SV40 in vitro replication reaction. The format is biochemical. Also on record: Amount of peptide that completely blocks replication: unit not given here. As to conditions: for Inhibition of SV40 in vitro DNA replication: 30 μl reactions, with T-ag. Here is the method: DNA replication reactions. SV40 in vitro replication reactions were conducted as described by Wobbe et al 1985, Proc. Natl. Acad. Sci. USA 82:5710-5714 (see also, Bullock, P. A., et al., 1998, p. 223-243. In S. Cotterill (ed.), Eukaryotic DNA Replication; A practical Approach, Oxford University Press, Oxford). Reaction mixtures (30 μl) contained 7 mM MgCl2, 0.5 mM DTT, 4 mM ATP, 40 mM creatine phosphate (di-Tris salt pH7.7), 1.4 μg of creatine phosphokinase, 12.5 μg/ml pSV01ΔEP, dATP, dGTP, and dTTP (100 μM each), CTP, GTP, and UTP (200 μM each), [α-^32p] dCTP (20 μM, about 5 cpm/fmol) and the indicated peptides.

In the next assay the test system is double-stranded DNA. Briefly: Binding of NLS peptides to double-stranded DNA. On the procedure:
(§2) In the examples that follow, peptides were designed and synthesized to contain NLS regions from a variety of viral and human proteins, in particular, T-ag of SV40, and each of the proteins encoded by the human tumor suppressor p53 gene (SEQ ID NO: 1), the E1 protein encoded by bovine papillomavirus (SEQ ID NO: 2), and a set of control peptides. Binding assays of these peptides were performed with a 64 bp oligonucleotide derived from the SV40 core origin (SEQ ID NO: 24). […] Single stranded DNA was bound poorly by p53 and E1 NLS region peptides.

For a further assay, the system named is single-stranded DNA. Briefly: Binding of NLS peptides to single-stranded DNA. On the procedure: as §2

T1 sequence (P03070 whole entry): as above

With “ADSQHSTPPKKKR (Virus; Host Macaca mulatta; DOMAIN (1)..(13) Domain of SV40 T-Antigen Protein (118)...(130)) [peptide 213, 13-mer of SV40 T-ag centered on Thr124]”, the “Effect on T-ag oligomerization, mutant set (FIG. 11 Panel B)” value is reported as “complete inhibition of oligomerization” in assay [1] (listed as SEQ ID NO: 3) and “inhibited T-ag oligomerization” in assay [1] (listed as peptide T-213). For the same sequence, the “Effect on T-ag oligomerization” value in assay [1] (peptide final concentration 0.5 mM) is “inhibited T-ag assembly events”. Moreover, the “Effect on T-ag oligomerization (hexamer and double hexamer formation)” value in assay [1] was “inhibited both hexamer and double hexamer formation”; in assay [1] (listed as peptide T-213) it was “formation of the standard hexamer and double hexamer protein was inhibited”. For the same sequence, the “Peptide/DNA complex formation in peptide band shift” value in assay [2] was “found to bind to DNA”; in assay [2] (listed as T-213) it was “Mobility shifts are seen”; in assay [2] (listed as peptide T-213), “binds to DNA”; in assay [3], “bound to the 64 bp enhancer control”; in assay [3] (listed as peptide T-213), “able to bind to the 64-bp enhancer control”. Further, the “Effect on ATPase of T-ag” value in the assay with T-ag helicase ATPase is recorded as “inhibited the ATPase of T-ag”. Further, the “Binding to DNA in filter binding assay” value in assay [4] (high peptide concentrations (1 mM and 2 mM)) is “saturation of binding was observed”; in assay [4] (peptide 0.5 mM) it was “bound relatively poorly”; in assay [4] (peptide 0.5 mM to 2 mM, replication conditions, pBR322 competitor), “binds to DNA”; in assay [4] (peptide 0.5 mM to 2 mM, replication conditions, pBR322 competitor, listed as peptide T-213), “able to bind to DNA”.

Take KRKVLGSSQNSSGSEASETPVKRRK [BP-E125]: the “Concentration of peptide that completely blocked viral DNA replication” value in assay [5] was “about 600 μM”. In addition, the figures for the “Inhibition of SV40 in vitro DNA replication” value in assay [5] and in assay [5] (listed as SEQ ID NO: 2) were “at all concentrations tested inhibited; also recorded: inhibits in vitro DNA replication reactions” and “best inhibitor of DNA replication”, respectively. Moreover, the “Amount of peptide that completely blocks replication” value in assay [5] (added to a reaction) is 20. In addition, the “DNA binding seen in EMSA without cross-linking” value is on record as “does not require cross-linking with glutaraldehyde” in assay [2] (listed as SEQ ID NO: 2) and “successful EMSA experiments” in assay [2] (listed as peptide E1-225). In addition, in the assay with double-stranded DNA, the “Binding to double-stranded DNA” value is reported as “bind to double-stranded DNA”. For the same sequence, in the assay with single-stranded DNA, the “Binding to single-stranded DNA” value is “bound poorly”. Further, in the assay with T-ag helicase ATPase, the “Effect on ATPase of T-ag” value is given as “blocked the degradation of ATP by T-ag”. Moreover, the “Binding to DNA in filter binding assay, E1 peptides” value in assay [4] (low peptide concentration 0.25 mM) is given as “better DNA binder than peptide 217”; in assay [4] (low peptide concentration 0.25 mM, listed as peptide E1-P225) it was “binds at a relatively low concentration of peptide”; in assay [4] (peptide 0.25 mM and 0.5 mM) it was “binds to DNA at a lower concentration than does peptide 217”; in assay [4] (peptide 0.25 mM and 0.5 mM, listed as BP-E1) it was “bound to DNA”; in assay [4] (peptide 0.25 mM and 0.5 mM, listed as SEQ ID NO: 2), “best DNA binder”; in assay [4] (peptide 0.25 mM and 0.5 mM, listed as peptide E1-P225) it was “found to bind to DNA”.

Turning to “TKRALPNNTSSSPQPKKKPL (DOMAIN (1)..(20) Domain of p53 (304)...(323); listed as Homo sapiens) [SEQ ID NO: 1, peptide from the NLS/Cdk region of human p53]”, the “Binding to double-stranded DNA” value in the assay with double-stranded DNA was “bind to double-stranded DNA; also recorded: binds to double-stranded”. Further, the “Binding to single-stranded DNA” value in the assay with single-stranded DNA was “bound poorly; also recorded: not single-stranded DNA”.
